Experimental data taken from patent US20090156657A1, “ANTI-INFLAMMATORY COMPOSITION” (Ajinomoto Co., Inc., priority 2006, published 2009).

Legend:
[1] = IBD model mouse: body weight, ingested feed, water drunk; type: in vivo; conditions: IBD model mice
Source text: 4 days before IL-10 deficient cell transplantation, total 40 SCID mice (7-week-old, were divided into the following 4 groups 1) to 4) (10 mice in each group) and acclimation to a control diet was simultaneously started. Immediately after cell transfer, the feed was changed to the test diet shown in Table 4, and free ingestion was allowed for 3 weeks. The safflower seed extract powder was the same as that in Example 8, and contained 50 wt % of γ-cyclodextrin. N-Feruloylserotonin (FS) was synthesized according to the method of Experimental Example 1. During the test diet ingestion period, the body weight, the amount of ingested feed and the amount of water drunk were measured 3 times a week to monitor the onset of the disease.
1) Normal group (normal SCID mice×control diet) 2) Control group (IL-10 deficient cell-transplanted SCID mice×control diet) 3) SSE group (IL-10 deficient cell-transplanted SCID mice×SSE diet*) 4) FS group (IL-10 deficient cell-transplanted SCID mice×FS diet**) *containing FS and p-coumaroyl serotonin (CS) at 0.10 and 0.13 wt %, respectively (based on aglycone) (total serotonin derivative content=[…]) **containing 0.4 wt % of FS aglycone

[2] = test system: U-937 cells / HAEC; test: Migration capability of monocyte (U-937), Transwell system with HAEC; type: cell-based, human; conditions: HAEC pre-incubated 5 or 10 μM 24 h, 25 mM glucose 4 h; FIG. 7
Protocol: The migration capability of monocyte was measured using the Transwell system (pore size 3 μm; BD Biosciences). HAEC cultured on a transwell placed in a 24 well microplate was pre-incubated with 5 or 10 μM serotonin derivative for 24 hours, and stimulated with 25 mM glucose for 4 hours. 200 μL of U-937 cell suspension (10^6 cells/mL) was added to the transwell and the cells were incubated as-is at 37° C. for 2 hours. The number of cells migrated to the lower chamber of the transwell through the membrane was counted under a microscope (20 fields). The experiment was repeated three times, and the results are shown as an average value thereof. An experiment using fluorescence-labeled U-937 cells was also performed. BCECF-AM-labeled U-937 cells were plated in the upper chamber of the transwell and incubated at 37° C. for 2 hours. The cells migrated to the lower chamber through the membrane were collected in 1 mL of PBS buffer and treated with 1% Triton X for 2 hours. The fluorescence derived from the migrated cells was quantified (Ex. 503 nm, Em. 525 nm) using a fluorescence plate reader (Bio-Rad, Fluoromark).

[3] = test system: TNF-α mRNA; test: IBD model mouse: TNF-α mRNA in large intestine tissue (realtime PCR); type: in vivo; conditions: IBD model mice, vs Control group, GAPDH internal standard; FIG. 15
Source text: (§1) At the end of the test described in Example 10, the large intestine (caecum—anus) was cut into about 1 cm pieces from the center to the anus side to give 3 sections in total. One of them was fixed with 10% formalin solution and two were frozen in liquid nitrogen. The large intestine fixed with formalin was embedded in paraffin, and sliced to give transversely sectioned specimens. The specimens were stained by a PAS (Periodic acid Schiff) staining method, and histopathological images were observed. On the other hand, total RNA was extracted from the frozen large intestine tissue with ISOGEN (NIPPON GENE CO., LTD.) Total RNA (2 μg) was subjected to a reverse transcription reaction using a SYBR ExScript™ RT-PCR kit (TaKaRa) and, using this as a template, quantitative realtime PCR was performed using IL-1β, TNF-α and GAPDH. The primers used for the analysis were as follows.
(§2) Template DNA (2 μl), SYBR Premix Ex Taq™ (TaKaRa, 10 μl), ROX Reference Dye (0.4 μl), 100 μM forward primer (0.04 μl), 100 μM reverse primer (0.04 μl) and sterile water (7.52 μl) were mixed on ice and, using Applied Biosystems 7900HT Fast realtime PCR system, the mixture was heated at 95° C. for 10 seconds, followed by 40 cycles of 95° C., 5 seconds and 60° C., 34 seconds, whereby the DNA was amplified. Using GAPDH as the internal standard, IL-1β and TNF-α expression levels were evaluated.

[4] = test system: MCP-1 mRNA; test: MCP-1 mRNA expression in HAEC by real-time PCR; type: cell-based, human; conditions: 10 μM 24 h, 25 mM glucose 3 h, GAPDH internal standard, FIG. 3B
Protocol: HAEC cells pre-treated with 10 μM of CS or FS for 24 hours were stimulated with 25 mM glucose for 3 hours, and total RNA was extracted with Isogenkit (NIPPON GENE CO., LTD.). From 1 μg of RNA, cDNA was synthesized using 100 U/mL of reverse transcriptase (TAKARA BIO INC.) and 0.1 μM of oligo (dT)-adapter (TAKARA BIO INC.) (total volume of reaction mixture; 50 μL) (42° C., 40 minutes). Real-time PCR was performed using 7300 Real Time PCR system (Applied Biosystems Japan Ltd.) and the PCR product was detected by SYBER Green I.
PCR reaction composition (RT-PCRkit, TAKARA BIO INC.): 12.5 μL Premix Ex Taq, 2.5 μL SYBER Green I, synthesis primer, ROX reference dye, cDNA (corresponding to 20 ng of total RNA), final reaction volume; 25 μL
Primers having the following sequences were used.
PCR was conducted under the following conditions.
thermal denaturation: at 95° C. for 15 seconds, extension reaction: 40 cycles (3 seconds at 95° C., 31 seconds at 60° C.)
Expression amounts of VCAM-1 and MCP-1 mRNA were calculated using GAPDH as the internal standard.

[5] = test system: MCP-1; test: MCP-1 secretion into medium of HAEC (immunoassay); type: cell-based, human; conditions: 0.1-10 μM 24 h, 25 mM glucose 4 h, FIG. 4B
Protocol: HAEC cells proliferated to confluence in a 96 well microplate were pre-incubated with 0.1-10 μM serotonin derivative for 24 hours, and stimulated with 25 mM glucose for 4 hours. The cell layer was washed with Hanks solution, and then anti-VCAM-1 monoclonal antibody (Becton Dickinson) was added and the cells were incubated at 37° C. for 1 hour. After washing, the cells were incubated with secondary antibody (peroxidase-labeled anti-mouse IgG goat F(ab′)2 fragment; Cappel) for 1 hour. A color development substrate (o-phenylenediamine dihydrochloride) was added and, about 30 minutes later (room temperature), the absorbance (492 nm) of each well was quantified with a microplate reader. The MCP-1 concentration of the medium was quantified with Human MCP-1 Immunoassay Kit (BioSource International).

[6] = test system: IL-1β mRNA; test: IBD model mouse: IL-1β mRNA in large intestine tissue (realtime PCR); type: in vivo; conditions: IBD model mice, vs Control group, GAPDH internal standard; FIG. 15
Source text: as §1, §2

[7] = test system: large intestine tissue of IBD model mice; test: IBD model mouse: large intestine histopathology (PAS staining); type: in vivo; conditions: vs Control group, FIG. 14
Source text: as §1

With COc1cc(/C=C/C(=O)NCCc2c[nH]c3ccc(O)cc23)ccc1O [FS, N-feruloyl serotonin] the “body weight change rate (day 0 = 100)” value ([1]; day 21 vs day 0, mean ± SEM) was 112.5 ± 1.2, the “body weight, completion of test diet ingestion (day 21)” value ([1]; mean ± SEM) was 20.6 ± 0.4 g and the “body weight, start of test diet ingestion (day 0)” value ([1]; mean ± SEM, baseline) was 18.3 ± 0.3 g. The “number of U-937 cells migrated into subendothelium space (cell count)” value [2] was “significantly decreased”, the “mRNA expression level of TNF-α in large intestine tissue” value [3] was “tendency toward decrease” and the “expression amount of MCP-1 mRNA” value [4] was “significantly suppressed the increase”. The “MCP-1 secretion into the medium” value [5] was “suppressed the induction of their expressions in a dose-dependent manner”, the “mRNA expression level of IL-1β in large intestine tissue” value [6] was “significant decrease” and the “number of normal goblet cells” value [7] was “increased number of normal goblet cells”. For the same molecule, the “thickening of the large intestine mucosal epithelium” value [7] was “suppressed thickening”.
